For data set [1], the system named is C. albicans (CA-1, Strain SLU-1). Briefly: Radial diffusion assay. The settings on record: pmoles of peptide added to well to achieve a 30 mm^2 zone, PROBIT analysis, crude or purified (P′) peptide. It counts as cell-based, Candida albicans. In a few lines:
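Peptides, serially diluted 2-fold in D-PBS (top ~1 mg/mL), diffused 3 h at 37° C into pH 7.4 phosphate-buffered agarose seeded with 1×10^6 CFU/mL yeast, before overnight growth under a 6% Sabouraud overlayer. Net inhibition zones measured after Coomassie staining; PROBIT fit of log pmol vs area gave pmol for 30 mm^2.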

Data set [2] is described as follows: in vitro. It counts as in vitro ADME, rat or human serum. The settings on record: serum, half-life of peptide in serum as detected by HPLC analysis; read-out: HPLC Peptide in Serum t ½ (converted). As to the method:
(§1) For these serum stability experiments, peptides were prepared by solid phase peptide sythesis and purified to 94% or greater purity as described in Example 1. Blood was collected from metaphane anesthesized rats by aortic bleed into Vacutainer™ tubes and allowed to clot at room temperature for approximately 30 minutes, then centrifuged at 3000 rpm (about 1000×g) for 10 minutes at room temperature and the serum aspirated. In addition, frozen human serum (North American Biologics, Inc., Miami, Fla., cat. no. 2140, lot no. 94115) was thawed at room temperature and filtered through a 0.45 μm membrane before use.
(§2) A 1 mg/mL solution of an exemplary XMP peptide to be tested was added to an equal volume of either rat or human serum described above and maintained at 37° C. At 0, 1, 2, and 4 hours, 100 μL were removed and processed by solid phase extraction for HPLC analysis as follows. Serum samples were prepared for HPLC using C-18 Sep-Pak cartridges (1 mL cartridge with 100 mg of sorbent, Waters Corp., Milford, Mass.). One hundred μL of serum sample were added to an equal volume of 1% TFA and mixed for 30 seconds on a Vortex mixer. The sample was then applied to a C-18 Sep-Pak cartridge that had been conditioned by washing with 1 mL of methanol followed by 1 mL Milli-Q water. Weakly reed components were eluted by washing with 1 mL of 0. 1% TFA. The bound peptide was eluted with two volumes of 250 μL 80% acetonitrile/0.065% TFA.
The material eluted from the Sep-Pak cartridge was analyzed on a Michrom Ultaafast Microprotein Analyzer equipped with a 150 mm×1 mm, 5μ particle, 300 Å pore C-8 Zorbax column. The column oven was set to 40° C., the flow rate was 100 μL/minute, and injection volumes were typically 5-10 μL. HPLC was performed using 5% acetonitrile/0.1% TFA in water as mobile phase A, and 80% acetonitrile/0.065% TFA as mobile phase B. The eluate was monitored spectiophotometrically at 214 nm. Peptide standards were dissolved in mobile phase A at 0. 1 mg/mL. The gradient was 25-35% B/10 minutes followed by a 5 minute wash step of 100% B and reequilibration at 25% B for 10 minutes.

Data set [3] is described as follows: Serum stability, anti-fungal activity after serum incubation by radial diffusion bioassay. As to conditions: Activity in Serum t ½ (hr.). It counts as in vitro ADME, rat or human serum. The protocol: as §1, §2
The peptides identified and purified after serum incubation as described above were subjected to N-terminal peptide sequencing performed on an Applied Biosystems Model 477A/120A sequencer and to electrospray ionization mass spectrometry (ESI/MS) performed using a VG Biotech Bio-Q Mass Spectrometer. In addition, the peptides identified and purified after serum incubation as described above were also tested for their anti-fungal activity in a radial diffusion bioassay with Candida albicans SLU-1 strain as described in Example 2.

Data set [4] has as its system mouse RAW 264.7 cells incubated with E. coli O113 LPS. As to conditions: RAW 264.7 cells with E. coli O113 LPS; concentration reversing LPS growth inhibition by 50%.
Data set [5] relates to mouse RAW 264.7 cells. As to conditions: RAW 264.7 cell growth inhibited by 50%.

Square brackets hold non-standard residues; d marks the D form. Peptide text beside a SMILES is read from it. * marks the point of attachment. d2Nal = N[C@H](Cc1ccc2ccccc2c1)C(=O)O; Lauroyl = CCCCCCCCCCCC(=O)*; Octanoyl = CCCCCCCC(=O)*; Orn = NCCC[C@H](N)C(=O)O; Dab = NCC[C@H](N)C(=O)O

As for `CC[C@H](C)[C@H](NC(=O)[C@H](CC(C)C)NC(=O)[C@H](Cc1c[nH]c2ccccc12)NC(=O)[C@H](CCCCN)NC(=O)[C@H]1CCCN1)C(=O)N[C@@H](CCC(N)=O)C(=O)N[C@@H](CC(C)C)C(=O)N[C@@H](CCCCN)C(=O)N[C@@H](CCCCN)C(N)=O` [XMP.334], the “C. albicans pmol/30 mm^2 zone” value is listed as 1,449 pmol/30 mm^2 zone in data set [1] and 1,065 pmol/30 mm^2 zone in data set [1] (listed as XMP.334P′). In addition, the half-life at 0.5 mg/mL in data set [2] is 3.2 h; in data set [3], 4.7 h.
`CC[C@H](C)[C@H](NC(=O)[C@H](CC(C)C)NC(=O)[C@H](Cc1c[nH]c2ccccc12)NC(=O)[C@H](CCCCN)NC(=O)[C@@H]1CCCN1)C(=O)N[C@@H](CCC(N)=O)C(=O)N[C@@H](CC(C)C)C(=O)N[C@@H](CCCCN)C(=O)N[C@@H](CCCCN)C(N)=O` [XMP.335]: the “C. albicans pmol/30 mm^2 zone” value in data set [1] was 871 pmol/30 mm^2 zone; in data set [1] (listed as XMP.335P′) it was 1,353 pmol/30 mm^2 zone. Moreover, the half-life at 0.5 mg/mL in data set [2] was 2.9 h; in data set [3], 1.3 h.
In the case of `CC[C@H](C)[C@H](NC(=O)[C@H](CC(C)C)NC(=O)[C@@H](Cc1ccc2ccccc2c1)NC(=O)[C@H](CCCCN)NC(=O)[C@@H](N)CCCCN)C(=O)N[C@@H](CC(C)C)C(=O)N[C@@H](CC(C)C)C(=O)N[C@@H](CCCCN)C(=O)N[C@@H](CCCCN)C(N)=O` [XMP.347] (H-KK[d2Nal]LILLKK-NH2), the “C. albicans pmol/30 mm^2 zone” value in data set [1] was 391 pmol/30 mm^2 zone. The values for the half-life at 0.5 mg/mL in data set [2] and in data set [3] were 2.5 h and 5.2 h, respectively.
Turning to `CC[C@@H](C)[C@@H](NC(=O)[C@@H](CCC(N)=O)NC(=O)[C@@H](CC(C)C)NC(=O)[C@@H](Cc1ccccc1)NC(=O)[C@@H](Cc1c[nH]cn1)NC(=O)[C@@H](CCCCN)NC(=O)[C@@H](CCCCN)NC(C)=O)C(=O)N[C@H](CC(C)C)C(=O)N[C@H](Cc1c[nH]c2ccccc12)C(=O)N[C@H](CCCCN)C(N)=O` [XMP.368], the “C. albicans pmol/30 mm^2 zone” value in data set [1] worked out at 744 pmol/30 mm^2 zone. The half-life at 0.5 mg/mL in data set [2] is 34.1 h; in data set [3], 25.2 h.
Regarding `CC[C@H](C)[C@H](NC(=O)[C@H](CC(C)C)NC(=O)[C@H](Cc1c[nH]c2ccccc12)NC(=O)[C@@H](N)CCCCN)C(=O)N[C@@H](CCCN)C(=O)N[C@@H](CC(C)C)C(=O)N[C@@H](Cc1ccccc1)C(=O)N[C@@H](Cc1c[nH]cn1)C(=O)N[C@@H](CCCCN)C(=O)N[C@@H](CCCCN)C(N)=O` [XMP.369] (H-KWLI[Orn]LFHKK-NH2), the “C. albicans pmol/30 mm^2 zone” value worked out at 993 pmol/30 mm^2 zone in data set [1] and 877 pmol/30 mm^2 zone in data set [1] (listed as XMP.369P′). Further, the values for the half-life at 0.5 mg/mL in data set [2] and in data set [3] were 0.6 h and 1.4 h, respectively.
With `CC[C@H](C)[C@H](NC(=O)[C@H](CC(C)C)NC(=O)[C@H](Cc1c[nH]c2ccccc12)NC(=O)[C@H](CCCCN)NC(C)=O)C(=O)N[C@@H](CCCN)C(=O)N[C@@H](CC(C)C)C(=O)N[C@@H](Cc1ccccc1)C(=O)N[C@@H](Cc1c[nH]cn1)C(=O)N[C@@H](CCCCN)C(=O)N[C@@H](CCCCN)C(N)=O` [XMP.370] (Ac-KWLI[Orn]LFHKK-NH2), the “C. albicans pmol/30 mm^2 zone” value in data set [1] was found to be 310 pmol/30 mm^2 zone. In addition, the half-life at 0.5 mg/mL was 2.9 h in data set [2] and 4.7 h in data set [3].
For `CC[C@H](C)[C@H](NC(=O)[C@H](CC(C)C)NC(=O)[C@H](Cc1c[nH]c2ccccc12)NC(=O)[C@H](CCCCN)NC(C)=O)C(=O)N[C@@H](CCN)C(=O)N[C@@H](CC(C)C)C(=O)N[C@@H](Cc1ccccc1)C(=O)N[C@@H](Cc1c[nH]cn1)C(=O)N[C@@H](CCCCN)C(=O)N[C@@H](CCCCN)C(N)=O` [XMP.372] (Ac-KWLI[Dab]LFHKK-NH2) the same measures were 328 pmol/30 mm^2 zone, 6.6 h and 1.4 h.
For the compound `CCCCCCCC(=O)N[C@@H](CCCCN)C(=O)N[C@@H](CCCCN)C(=O)N[C@@H](Cc1c[nH]c2ccccc12)C(=O)N[C@@H](C)C(=O)N[C@H](C(=O)N[C@@H](CCC(N)=O)C(=O)N[C@@H](CC(C)C)C(=O)N[C@@H](CCCCN)C(=O)N[C@@H](CCCCN)C(N)=O)[C@@H](C)CC` [XMP.410] (Octanoyl-KKWAIQLKK-NH2), the “C. albicans pmol/30 mm^2 zone” value in data set [1] is reported as 599 pmol/30 mm^2 zone. This compound gave a half-life at 0.5 mg/mL in data set [3] of 2.9 h. The “In Vitro LPS Neutralization EC50” value in data set [4] is greater than 25 µg/mL. The “IC50 (toxicity/growth inhibition of peptide)” value in data set [5] is recorded as “NA (NA for IC50 means no evidence of decreased RAW cell growth at up to 50 μg/ml)”.
`CCCCCCCCCCCC(=O)N[C@@H](CCCCN)C(=O)N[C@@H](CCCCN)C(=O)N[C@@H](Cc1c[nH]c2ccccc12)C(=O)N[C@@H](C)C(=O)N[C@H](C(=O)N[C@@H](CCC(N)=O)C(=O)N[C@@H](CC(C)C)C(=O)N[C@@H](CCCCN)C(=O)N[C@@H](CCCCN)C(N)=O)[C@@H](C)CC` [XMP.411] (Lauroyl-KKWAIQLKK-NH2; C-terminus assumed): the half-life at 0.5 mg/mL in data set [2] was 9.7 h; in data set [3] it was 4.2 h. In addition, the “In Vitro LPS Neutralization EC50” value in data set [4] came to 2.94 ± 0.14 µg/mL. Also, the “IC50 (toxicity/growth inhibition of peptide)” value in data set [5] is greater than 25 µg/mL.
As to H-GWLIQLFHKK-NH2 [XMP.388], the “C. albicans pmol/30 mm^2 zone” value in data set [1] stood at 170 pmol/30 mm^2 zone. Besides, the half-life at 0.5 mg/mL in data set [2] is 0.4 h; in data set [3] it was 1.4 h.
For H-KKPWAIQLKK-NH2 [XMP.379] the same measures were 547 pmol/30 mm^2 zone, 0.8 h and 0.3 h.
With H-KKWAIQLKK-NH2 [XMP.344], in data set [1], the “C. albicans pmol/30 mm^2 zone” value is 251 pmol/30 mm^2 zone. The half-life at 0.5 mg/mL in data set [2] is 0.6 h; in data set [3] it was 3.3 h.
Turning to H-KKWLIQAKK-NH2 [XMP.345], the “C. albicans pmol/30 mm^2 zone” value in data set [1] is 1,211 pmol/30 mm^2 zone. In addition, the half-life at 0.5 mg/mL in data set [2] is 1.4 h; in data set [3] it was 2.7 h.
For H-KKWLIQLFHKK-NH2 [XMP.352] the same measures were 354 pmol/30 mm^2 zone, 0.7 h and 1.2 h.
As to H-KKWLIQLFKK-NH2 [XMP.351], in data set [1], the “C. albicans pmol/30 mm^2 zone” value is given as 385 pmol/30 mm^2 zone. The same compound gave a half-life at 0.5 mg/mL in data set [3] of 0.4 h.
With H-KKWLIQLKKK-NH2 [XMP.349], the “C. albicans pmol/30 mm^2 zone” value in data set [1] turned out to be 120 pmol/30 mm^2 zone. The half-life at 0.5 mg/mL is 1.4 h in data set [2] and 3.3 h in data set [3].
On to H-KWLIQLFHKP-NH2 [XMP.357], for which the “C. albicans pmol/30 mm^2 zone” value in data set [1] is on record as 204 pmol/30 mm^2 zone. Besides, in data set [3], the half-life at 0.5 mg/mL is 0.8 h.
For the compound H-PWAIQLFHKK-NH2 [XMP.387], the “C. albicans pmol/30 mm^2 zone” value in data set [1] is recorded as 82 pmol/30 mm^2 zone. Also, the half-life at 0.5 mg/mL was 2.8 h in data set [2] and 2.3 h in data set [3].
As to H-PWLIQLFHKK-NH2 [XMP.355], the “C. albicans pmol/30 mm^2 zone” value in data set [1] is 2,529 pmol/30 mm^2 zone; in data set [1] (listed as XMP.355P′) it was 218 pmol/30 mm^2 zone. Also, the half-life at 0.5 mg/mL was 3.2 h in data set [2] and 5.7 h in data set [3].

These data come from patent US6664231B1, “Anti-fungal peptides” (priority 1993, dated 2003).
